Measurements from ChEMBL document CHEMBL3991601, “The target landscape of clinical kinase drugs” (Science, 2017).
Activity calls are given as the source filed them.

Tests used:
[1] = molecular target: T1, Very long-chain specific acyl-CoA dehydrogenase, mitochondrial (Homo sapiens, UniProt P49748)
T1 sequence (P49748 whole entry): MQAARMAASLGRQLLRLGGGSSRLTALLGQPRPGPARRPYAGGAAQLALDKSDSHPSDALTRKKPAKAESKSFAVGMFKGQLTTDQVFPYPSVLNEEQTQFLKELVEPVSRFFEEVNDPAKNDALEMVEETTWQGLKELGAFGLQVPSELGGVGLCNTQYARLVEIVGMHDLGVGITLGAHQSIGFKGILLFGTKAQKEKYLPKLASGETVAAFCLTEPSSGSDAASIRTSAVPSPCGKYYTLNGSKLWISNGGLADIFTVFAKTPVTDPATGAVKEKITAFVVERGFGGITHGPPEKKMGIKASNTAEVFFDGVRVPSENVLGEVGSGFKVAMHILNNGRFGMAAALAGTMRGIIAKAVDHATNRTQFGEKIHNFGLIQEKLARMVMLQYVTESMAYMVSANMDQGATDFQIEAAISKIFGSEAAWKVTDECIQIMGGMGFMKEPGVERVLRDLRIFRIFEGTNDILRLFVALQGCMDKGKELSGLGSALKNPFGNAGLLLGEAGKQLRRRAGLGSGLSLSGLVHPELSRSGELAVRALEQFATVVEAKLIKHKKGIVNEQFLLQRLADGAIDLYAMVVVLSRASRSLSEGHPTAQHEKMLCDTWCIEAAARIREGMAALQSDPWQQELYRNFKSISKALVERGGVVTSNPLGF

[2] = molecular target: T2, Serine/threonine-protein kinase A-Raf (Homo sapiens, UniProt P10398)
T2 sequence (P10398 whole entry): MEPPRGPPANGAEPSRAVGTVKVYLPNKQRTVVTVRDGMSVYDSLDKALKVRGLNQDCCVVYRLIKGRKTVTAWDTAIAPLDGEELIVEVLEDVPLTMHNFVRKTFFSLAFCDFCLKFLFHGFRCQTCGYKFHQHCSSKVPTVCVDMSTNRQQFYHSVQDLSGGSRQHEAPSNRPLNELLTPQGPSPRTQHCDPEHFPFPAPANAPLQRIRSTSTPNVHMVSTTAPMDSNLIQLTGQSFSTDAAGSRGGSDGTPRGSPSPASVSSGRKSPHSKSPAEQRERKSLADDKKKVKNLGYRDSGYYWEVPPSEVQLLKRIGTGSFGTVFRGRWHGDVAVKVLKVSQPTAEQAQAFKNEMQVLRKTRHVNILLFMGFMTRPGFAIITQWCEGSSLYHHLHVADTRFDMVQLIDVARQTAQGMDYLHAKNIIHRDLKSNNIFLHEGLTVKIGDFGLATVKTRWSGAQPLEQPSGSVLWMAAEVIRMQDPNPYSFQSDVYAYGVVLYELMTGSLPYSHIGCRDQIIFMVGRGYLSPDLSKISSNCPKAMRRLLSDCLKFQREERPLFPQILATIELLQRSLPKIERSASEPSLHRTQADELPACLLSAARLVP

[3] = molecular target: Calcium/calmodulin-dependent protein kinase type II subunit gamma (Homo sapiens, UniProt Q13555)
Sequence of Calcium/calmodulin-dependent protein kinase type II subunit gamma (Q13555 whole entry): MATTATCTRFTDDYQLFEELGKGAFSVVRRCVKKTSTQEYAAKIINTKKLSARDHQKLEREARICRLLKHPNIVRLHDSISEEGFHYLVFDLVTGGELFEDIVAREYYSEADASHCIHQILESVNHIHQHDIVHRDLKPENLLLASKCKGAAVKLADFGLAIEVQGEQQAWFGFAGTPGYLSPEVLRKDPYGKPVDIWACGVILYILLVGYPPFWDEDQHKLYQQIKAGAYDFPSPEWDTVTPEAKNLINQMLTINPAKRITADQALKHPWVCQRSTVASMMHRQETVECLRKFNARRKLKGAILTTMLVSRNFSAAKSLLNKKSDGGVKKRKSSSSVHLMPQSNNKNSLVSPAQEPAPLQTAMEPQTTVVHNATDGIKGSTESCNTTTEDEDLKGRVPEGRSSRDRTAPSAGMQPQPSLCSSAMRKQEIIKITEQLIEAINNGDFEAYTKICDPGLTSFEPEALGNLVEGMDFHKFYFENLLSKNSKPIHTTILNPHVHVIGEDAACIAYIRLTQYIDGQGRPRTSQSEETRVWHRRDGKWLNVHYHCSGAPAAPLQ

[4] = molecular target: Cyclin-dependent kinase 5 (Homo sapiens, UniProt Q00535)
Sequence of Cyclin-dependent kinase 5 (Q00535 whole entry): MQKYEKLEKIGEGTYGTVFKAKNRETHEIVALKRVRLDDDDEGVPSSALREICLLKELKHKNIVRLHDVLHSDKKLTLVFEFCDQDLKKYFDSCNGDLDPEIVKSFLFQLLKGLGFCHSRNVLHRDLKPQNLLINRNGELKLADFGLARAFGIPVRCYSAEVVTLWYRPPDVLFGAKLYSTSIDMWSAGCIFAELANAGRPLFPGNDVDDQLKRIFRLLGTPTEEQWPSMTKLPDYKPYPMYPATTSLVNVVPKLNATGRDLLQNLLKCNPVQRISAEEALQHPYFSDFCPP

[5] = molecular target: Serine/threonine-protein kinase/endoribonuclease IRE2 (Homo sapiens, UniProt Q76MJ5)
Sequence of Serine/threonine-protein kinase/endoribonuclease IRE2 (Q76MJ5 whole entry): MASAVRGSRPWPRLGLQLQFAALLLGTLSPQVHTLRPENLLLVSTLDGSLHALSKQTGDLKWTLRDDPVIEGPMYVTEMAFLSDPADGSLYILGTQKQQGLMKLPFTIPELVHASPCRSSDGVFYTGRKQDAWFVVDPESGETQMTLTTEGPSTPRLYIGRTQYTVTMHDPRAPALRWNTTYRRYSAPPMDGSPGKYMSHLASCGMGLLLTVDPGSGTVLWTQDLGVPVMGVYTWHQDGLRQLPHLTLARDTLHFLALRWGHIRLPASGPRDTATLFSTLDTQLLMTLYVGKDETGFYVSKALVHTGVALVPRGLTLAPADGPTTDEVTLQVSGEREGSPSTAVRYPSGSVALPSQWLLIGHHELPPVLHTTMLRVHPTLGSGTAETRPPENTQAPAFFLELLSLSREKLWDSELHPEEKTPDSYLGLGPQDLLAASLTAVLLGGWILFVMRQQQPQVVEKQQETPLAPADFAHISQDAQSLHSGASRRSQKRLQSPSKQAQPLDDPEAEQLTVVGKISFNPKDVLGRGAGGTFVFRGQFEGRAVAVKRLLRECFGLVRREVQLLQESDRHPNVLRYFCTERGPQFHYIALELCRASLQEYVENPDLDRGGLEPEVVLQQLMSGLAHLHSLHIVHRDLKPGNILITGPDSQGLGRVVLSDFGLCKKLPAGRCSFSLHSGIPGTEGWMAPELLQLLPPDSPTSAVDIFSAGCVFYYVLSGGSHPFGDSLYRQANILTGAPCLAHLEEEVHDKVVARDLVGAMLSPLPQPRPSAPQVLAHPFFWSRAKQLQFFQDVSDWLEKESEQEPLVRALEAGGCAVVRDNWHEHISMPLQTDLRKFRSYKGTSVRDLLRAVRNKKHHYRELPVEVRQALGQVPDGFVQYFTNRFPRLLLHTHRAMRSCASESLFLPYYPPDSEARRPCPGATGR

Scaffold protein ILK = molecular target: T3, Scaffold protein ILK (Homo sapiens, UniProt Q13418)
T3 sequence (Q13418 whole entry): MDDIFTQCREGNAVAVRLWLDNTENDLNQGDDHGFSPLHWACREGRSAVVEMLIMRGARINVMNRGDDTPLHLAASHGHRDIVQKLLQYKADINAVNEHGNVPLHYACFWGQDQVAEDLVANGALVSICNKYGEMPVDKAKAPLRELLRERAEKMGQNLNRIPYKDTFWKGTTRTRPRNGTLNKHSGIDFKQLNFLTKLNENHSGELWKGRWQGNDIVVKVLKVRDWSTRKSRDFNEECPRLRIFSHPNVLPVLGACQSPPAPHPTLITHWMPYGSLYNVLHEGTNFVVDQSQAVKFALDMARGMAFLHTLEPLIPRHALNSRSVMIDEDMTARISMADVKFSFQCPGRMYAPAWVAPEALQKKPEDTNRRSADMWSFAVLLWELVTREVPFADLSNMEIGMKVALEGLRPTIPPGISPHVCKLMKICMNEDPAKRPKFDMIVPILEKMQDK

[6] = molecular target: Mitogen-activated protein kinase kinase kinase 1 (Homo sapiens, UniProt Q13233)
Sequence of Mitogen-activated protein kinase kinase kinase 1 (Q13233 whole entry): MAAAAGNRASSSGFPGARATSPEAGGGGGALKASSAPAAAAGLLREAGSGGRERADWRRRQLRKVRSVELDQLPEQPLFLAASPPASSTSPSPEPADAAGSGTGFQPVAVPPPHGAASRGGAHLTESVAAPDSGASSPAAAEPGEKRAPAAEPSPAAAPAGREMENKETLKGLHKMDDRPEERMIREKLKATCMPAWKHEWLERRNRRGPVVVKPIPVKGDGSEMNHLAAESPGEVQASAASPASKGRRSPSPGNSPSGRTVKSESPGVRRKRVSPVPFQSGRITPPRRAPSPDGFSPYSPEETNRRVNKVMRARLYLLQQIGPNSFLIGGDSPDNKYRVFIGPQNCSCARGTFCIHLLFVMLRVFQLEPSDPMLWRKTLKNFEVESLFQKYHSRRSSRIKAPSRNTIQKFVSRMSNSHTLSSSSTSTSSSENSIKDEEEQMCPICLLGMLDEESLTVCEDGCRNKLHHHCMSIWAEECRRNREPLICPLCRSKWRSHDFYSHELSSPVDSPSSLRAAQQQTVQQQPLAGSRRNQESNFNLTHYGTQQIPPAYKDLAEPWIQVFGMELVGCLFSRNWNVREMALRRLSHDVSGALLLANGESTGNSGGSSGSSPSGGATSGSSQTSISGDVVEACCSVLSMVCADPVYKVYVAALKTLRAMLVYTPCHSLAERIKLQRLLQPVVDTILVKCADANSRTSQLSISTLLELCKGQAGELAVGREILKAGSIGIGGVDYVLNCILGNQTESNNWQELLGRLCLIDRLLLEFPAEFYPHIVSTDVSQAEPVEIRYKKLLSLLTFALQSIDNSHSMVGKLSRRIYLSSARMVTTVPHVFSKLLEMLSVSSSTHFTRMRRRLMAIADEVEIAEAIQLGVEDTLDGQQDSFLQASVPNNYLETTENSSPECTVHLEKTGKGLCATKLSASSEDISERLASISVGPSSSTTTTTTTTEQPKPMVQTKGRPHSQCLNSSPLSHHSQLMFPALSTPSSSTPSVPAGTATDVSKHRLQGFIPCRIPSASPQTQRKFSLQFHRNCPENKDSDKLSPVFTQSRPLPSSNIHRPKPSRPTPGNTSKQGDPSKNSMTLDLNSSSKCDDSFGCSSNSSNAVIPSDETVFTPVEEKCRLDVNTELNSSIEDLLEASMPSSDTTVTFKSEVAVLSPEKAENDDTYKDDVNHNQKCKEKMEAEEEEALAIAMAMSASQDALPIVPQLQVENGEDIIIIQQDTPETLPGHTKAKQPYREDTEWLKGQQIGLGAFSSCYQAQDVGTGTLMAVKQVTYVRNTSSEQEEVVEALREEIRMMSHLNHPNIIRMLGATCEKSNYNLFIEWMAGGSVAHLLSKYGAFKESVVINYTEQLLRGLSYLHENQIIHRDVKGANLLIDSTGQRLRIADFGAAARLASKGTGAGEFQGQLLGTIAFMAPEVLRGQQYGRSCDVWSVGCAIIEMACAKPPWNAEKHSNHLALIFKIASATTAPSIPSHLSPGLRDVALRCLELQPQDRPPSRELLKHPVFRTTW

[7] = molecular target: T4, Serine/threonine-protein kinase Nek3 (Homo sapiens, UniProt P51956)
T4 sequence (P51956 whole entry): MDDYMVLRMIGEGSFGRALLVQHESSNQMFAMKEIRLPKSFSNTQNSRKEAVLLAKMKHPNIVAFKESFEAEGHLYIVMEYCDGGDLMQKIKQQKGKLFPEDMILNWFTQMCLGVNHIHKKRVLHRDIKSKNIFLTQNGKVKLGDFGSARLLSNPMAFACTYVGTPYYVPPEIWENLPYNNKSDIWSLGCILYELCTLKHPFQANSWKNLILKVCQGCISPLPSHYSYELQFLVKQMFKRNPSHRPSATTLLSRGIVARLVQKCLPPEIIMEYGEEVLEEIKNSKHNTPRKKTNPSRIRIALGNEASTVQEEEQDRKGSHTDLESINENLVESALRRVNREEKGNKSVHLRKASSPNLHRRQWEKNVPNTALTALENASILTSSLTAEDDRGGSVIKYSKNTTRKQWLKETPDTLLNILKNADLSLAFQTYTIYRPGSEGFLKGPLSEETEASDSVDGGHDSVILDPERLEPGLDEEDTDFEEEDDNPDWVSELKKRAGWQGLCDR
Also: in the data inactive means no Kd found up to 30 µM.

Structure (SMILES)	Kd [1]	Kd [2]	Kd [3]	Kd [4]	Kd [5]	Kd (Scaffold protein ILK)	Kd [6]	Kd [7]
Cn1cc(-c2cnc3ccc4ccc(CS(=O)(=O)NCc5ccccn5)cc4c(=O)c3c2)cn1 [MK-8033]	> 30 µM (inactive)	> 30 µM (inactive)	> 30 µM (inactive)	> 30 µM (inactive)	> 30 µM (inactive)	> 30 µM (inactive)	> 30 µM (inactive)	> 30 µM (inactive)
FC(F)(F)c1ccc(/C=C/c2nc(COc3ccc(CCCCn4ccnn4)cc3)co2)cc1 [MUBRITINIB]	> 30 µM (inactive)	> 30 µM (inactive)	> 30 µM (inactive)	> 30 µM (inactive)	> 30 µM (inactive)	> 30 µM (inactive)	> 30 µM (inactive)	> 30 µM (inactive)
Cc1[nH]c(/C=C2\C(=O)Nc3ccccc32)c(C)c1CCC(=O)O [ORANTINIB]	> 30 µM (inactive)	> 30 µM (inactive)			> 30 µM (inactive)	> 30 µM (inactive)	> 30 µM (inactive)	> 30 µM (inactive)
CNC(=O)c1cc(Oc2ccc(NC(=O)Nc3cc(C(C)(C)C)nn3-c3ccc4ncccc4c3)c(F)c2)ccn1 [REBASTINIB]	> 30 µM (inactive)	33.7 µM (active)	> 30 µM (inactive)	1.5 µM (active)	> 30 µM (inactive)	> 30 µM (inactive)	> 30 µM (inactive)	> 30 µM (inactive)
N#CC[C@H](C1CCCC1)n1cc(-c2ncnc3[nH]ccc23)cn1 [RUXOLITINIB]	> 30 µM (inactive)	> 30 µM (inactive)	0.259 µM (active)		> 30 µM (inactive)	> 30 µM (inactive)		29.9 µM (active)
CN1CCN(CCOc2cc(OC3CCOCC3)c3c(Nc4c(Cl)ccc5c4OCO5)ncnc3c2)CC1 [SARACATINIB]	> 30 µM (inactive)	> 30 µM (inactive)	> 30 µM (inactive)	> 30 µM (inactive)	> 30 µM (inactive)	> 30 µM (inactive)	> 30 µM (inactive)	> 30 µM (inactive)
Cc1cc(Nc2ncnc3ccc(NC4=NC(C)(C)CO4)cc23)ccc1Oc1ccn2ncnc2c1 [TUCATINIB]	> 30 µM (inactive)	> 30 µM (inactive)	> 30 µM (inactive)	> 30 µM (inactive)	> 30 µM (inactive)	> 30 µM (inactive)	> 30 µM (inactive)	> 30 µM (inactive)
Cn1ncc(Cl)c1-c1cc(C(=O)N[C@H](CN)Cc2ccc(F)c(F)c2)oc1Cl [UPROSERTIB]	> 30 µM (inactive)	> 30 µM (inactive)	> 30 µM (inactive)	> 30 µM (inactive)	> 30 µM (inactive)	> 30 µM (inactive)	> 30 µM (inactive)	> 30 µM (inactive)
CC(C)c1cc(CNc2nc(Nc3cc(C4CC4)[nH]n3)cc(N3CCN(C)CC3)n2)on1 [XL-228]	> 30 µM (inactive)	> 30 µM (inactive)	> 30 µM (inactive)	> 30 µM (inactive)	> 30 µM (inactive)	> 30 µM (inactive)	> 30 µM (inactive)	> 30 µM (inactive)
